Measured values taken from publication PMC8637766, “A mixed chirality α-helix in a stapled bicyclic and a linear antimicrobial peptide revealed by X-ray crystallography” (RSC Chemical Biology, 2021).
Converted amounts (≈) assume the structure as drawn. Square brackets hold non-standard residues; d marks the D form. Ends that are not written are not given here. Peptide text beside a SMILES is read from it. * marks the point of attachment. Benzoyl(4-Me) = Cc1ccc(C(=O)*)cc1

Legend:
[1] = system: K. pneumoniae Oxa-48; assay type: cell-based
Experimental: (§1) Bicyclic and linear peptides cytotoxicity was assayed against P. aeruginosa PAO1, P. aeruginosa ZEM-1A, P. aeruginosa ZEM9A, K. pneumoniae Oxa-48, E. coli W3110, A. baumannii BAL225, S. aureus Newman, S. aureus COL (clinical isolate of MRSA) , B. Subtilis BR151.
(§2) To determine the Minimal Inhibitory Concentration (MIC), Broth Microdilution method was used . 2 A colony of bacteria from glycerol stock was grown in LB medium overnight at 37 °C and 180 rpm shaking. The compounds were prepared as stock solutions of 8 mg/mL in sterilized milliQ deionized water, added to the first well of 96 -well sterile, polypropylene round bottom microtiter plates (TPP, untreated) and diluted serially by ½. The concentration of the bacteria was quantified by measuring absorbance at 600 nm and diluted to an OD 600 of 0.022 in MH medium. The sample solutions (150 µL) were mixed with 4 µL diluted bacterial suspension with a final inoculation of about 5×10^5 CFU.
(§3) For each test, two columns of the plate were kept for sterility control (MH medium only), growth control (MH medium with bacterial inoculum, no compound). The positive control, Polymyxin B (starting with a concentration of 64 µg/mL) in MH medium with bacterial inoculums, was introduced in the two first lines of the plate. The plates were incubated at 37 °C for ~18 hours under static conditions. 15 μL of 3-(4,5-dimethylthiazol-2-yl)-2,5-diphenyltetrazolium bromide (MTT)3 (1 mg/mL in sterilized milliQ deionized water) were added to each well and the plates were incubated for 20-30 minutes at room temperature. The minimal inhibitory concentration (MIC) was defined as the lowest concentration of the dendrimer that inhibits the visible growth of the tested bacteria (yellow) with the unaided eye.

[2] = system: A. baumannii BAL225; assay type: cell-based
Experimental: as §1, §2, §3

[3] = system: E. coli W3110; assay type: cell-based
Experimental: as §1, §2, §3

[4] = system: S. aureus Newman; assay type: cell-based
Experimental: as §1, §2, §3

[5] = system: S. aureus COL (clinical isolate of MRSA); assay type: cell-based
Experimental: as §1, §2, §3

[6] = system: P. aeruginosa ZEM-1A; assay type: cell-based, Pseudomonas aeruginosa
Experimental: as §1, §2, §3

[7] = system: P. aeruginosa PAO1; assay type: cell-based, Pseudomonas aeruginosa
Experimental: as §1, §2, §3

[8] = system: P. aeruginosa ZEM9A; assay type: cell-based, Pseudomonas aeruginosa
Experimental: as §1, §2, §3

MIC K. pneumoniae Oxa-48 [1] [µg/mL]	MIC A. baumannii BAL225 [2] [µg/mL]	MIC E. coli W3110 [3] [µg/mL]	MIC S. aureus Newman [4] [µg/mL]	MIC S. aureus COL [5] [µg/mL]	MIC P. aeruginosa ZEM-1A [6] [µg/mL]	MIC PAO1 [7] [µg/mL]	MIC P. aeruginosa ZEM9A [8] [µg/mL]	Molecule
8 (≈ 5.52 µM)	4 (≈ 2.76 µM)	8 (≈ 5.52 µM)	4 (≈ 2.76 µM)	4 (≈ 2.76 µM)	4 (≈ 2.76 µM)	4 to 8	16 (≈ 11 µM)	CSC[C@H](NC(=O)[C@H](CCCCN)NC(=O)[C@H](CC(C)C)NC(=O)[C@H](CSC)NC(=O)[C@H](CCCCN)NC(=O)[C@H](CC(C)C)NC(=O)[C@H](CC(C)C)NC(=O)[C@H](CCCCN)NC(=O)[C@H](CCCCN)NC(=O)c1ccc(C)cc1)C(=O)N[C@@H](CC(C)C)C(=O)N[C@@H](CC(C)C)C(N)=O [ln65b] ({Benzoyl(4-Me)}-KKLLKC(Me)LKC(Me)LL-NH2)
8 (≈ 6.05 µM)	2 to 4	4 (≈ 3.03 µM)	8 (≈ 6.05 µM)	16 (≈ 12.1 µM)	8 (≈ 6.05 µM)	8 (≈ 6.05 µM)	>32	CC(C)C[C@H](NC(=O)[C@H](CC(C)C)NC(=O)[C@H](CC(C)C)NC(=O)[C@@H](CCCCN)NC(=O)[C@H](CC(C)C)NC(=O)[C@H](CC(C)C)NC(=O)[C@@H](CCCCN)NC(=O)[C@H](CC(C)C)NC(=O)[C@H](CC(C)C)NC(=O)[C@@H](CCCCN)NC(=O)[C@H](N)CCCCN)C(N)=O [ln69] (HELM PEPTIDE1{[dK].[dK].L.L.[dK].L.L.[dK].L.L.L.[am]}$$$$V2.0)
>32	8 (≈ 5.52 µM)	8 (≈ 5.52 µM)	32 (≈ 22.1 µM)	32 (≈ 22.1 µM)	8 (≈ 5.52 µM)	16 (≈ 11 µM)	>32	CSC[C@H](NC(=O)[C@@H](CCCCN)NC(=O)[C@H](CC(C)C)NC(=O)[C@H](CSC)NC(=O)[C@@H](CCCCN)NC(=O)[C@H](CC(C)C)NC(=O)[C@H](CC(C)C)NC(=O)[C@@H](CCCCN)NC(=O)[C@@H](CCCCN)NC(=O)c1ccc(C)cc1)C(=O)N[C@@H](CC(C)C)C(=O)N[C@@H](CC(C)C)C(N)=O [ln69b] ({Benzoyl(4-Me)}-[dK][dK]LL[dK]C(Me)L[dK]C(Me)LL-NH2)
4	2 to 4	4	2 to 4	4	2 to 4	2 to 4	16	KKLLKLLKLLL-NH2 [ln65]
